Test results reported in patent US11168081B2, “Alkaloid derivative having angiogenesis inhibitory effect, and pharmaceutical composition containing same” (SEOUL NATIONAL UNIVERSITY R&DB FOUNDATION, priority 2017, dated 2021).

Tests used:
HUVECs [1] = assay: HUVEC cell growth assay (MTT); type: cell-based, human; conditions: for IC50: Homo sapiens, HUVEC, MTT, 24 hours, in the presence of VEGF (50 ng/mL)
Description: Human umbilical vascular endothelial cells (HUVECs) were obtained from the ATCC (Rockville, Md.) and cultured in EGM-2 (Lonza, Walkersville, Md.) supplemented with 10% FBS at 37° C. under a 5% CO2 atmosphere.
Cell growth was assessed by MTT assay. HUVECs (8×10^3 cells/well) were seeded onto a 96-well plate with EGM-2 medium supplemented with 10% FBS for 24 hours. The next day, the culture medium was removed, and the cells were then incubated with serum-free medium for 12 hours. Following serum starvation, the cells were cultured in fresh 2% FBS/EBM-2 medium containing various concentrations of the test compound for 24 hours in the presence of VEGF (50 ng/mL). After the incubation, an MTT solution was added, and the plate was incubated for additional 4 hours. The formazan product was dissolved in DMSO, and the absorbance was detected at 570 nm using a VersaMax ELISA microplate reader (Molecular Devices, Sunnyvale, Calif.).
(§1) The same experiment was carried out for sunitinib as a positive control.

HUVECs [2] = assay: In vitro tube formation assay; type: cell-based, human; conditions: for IC50: Homo sapiens, HUVEC, HUVECs on Matrigel, 8 hours, VEGF-induced tube formation; for Selectivity Index (SI): ratio of the IC50 for HUVEC cell growth to the IC50 for tube formation
Description: Matrigel (70 μl/well) was coated onto a 96-well plate and polymerized for 30 minutes at 37° C. under a 5% CO2 atmosphere. HUVECs (1.5×10^4 cells/well) and various concentrations of the compound were seeded onto each well of the Matrigel-coated 96-well plate. The cells were then incubated for 8 hours at 37° C. under a 5% CO2 atmosphere. The formation of endothelial cell tubular structures was visualized under an inverted microscope and photographed (Olympus Optical Co. Ltd., Tokyo, Japan). The inhibition rate of tube formation was determined using the following equation. tube formation inhibition rate (%)=[1−(average tube numbersample−average tube numberVEGF(−))/(average tube numberVEGF(+)−average tube numberVEGF(−))]×100 [Equation 1]
The IC50 value was calculated using nonlinear regression analysis using TableCurve 2D v5.01 software (Systat Software Inc., Richmond, Calif., USA).
as §1
The endothelial cell tubular structure formation assay was performed in the same manner as in the Experimental Example 1.

[3] = system: human umbilical vascular endothelial cell (HUVEC); conditions: Korean Patent Application Publication No. 10-2012-0122705; cited from earlier work

SMILES | IC50 (HUVECs [1]) [µM] | IC50 (HUVECs [2]) [µM] | Selectivity Index (SI) (HUVECs [2]) | inhibition of human umbilical vascular endothelial cell (HUVEC) [3] | higher inhibitory effect on the cell growth of HUVECs (HUVECs [1]; sunitinib relative to compound (I-7)) [fold]
CCCNCCc1cn(C(c2ccc(OC)c(OC)c2)c2nc3ccc(CC)cc3s2)nn1 (centres unmarked) [Compound I-3, N-(2-(1-((3,4-dimethoxyphenyl)(6-ethylbenzo[d]thiazol-2-yl)methyl)-1H-1,2,3-triazol-4-yl)ethyl)propan-1-amine] | 38.6 | 1.39 | 27.8 | – | –
CCc1ccc2nc(C(c3ccc(OC)c(OC)c3)n3cnc(CCN(C)C)c3)sc2c1 (centres unmarked) [Compound I-10, 2-(1-((3,4-dimethoxyphenyl)(6-ethylbenzo[d]thiazol-2-yl)methyl)-1H-imidazol-4-yl)-N,N-dimethylethan-1-amine] | > 100 | 4.87 | – | – | –
CCc1ccc2nc(C(c3ccc(OC)c(OC)c3)n3cc(CCN4CCCC4)nn3)sc2c1 (centres unmarked) [Compound I-5, 2-((3,4-dimethoxyphenyl)(4-(2-(pyrrolidin-1-yl)ethyl)-1H-1,2,3-triazol-1-yl)methyl)-6-ethylbenzo[d]thiazole] | 70.3 | 2.84 | 24.8 | – | –
CN(C)CCc1cn(C(c2ccc(O)c(O)c2)C2Oc3ccc(C=COS(=O)(=O)[O-])cc3O2)cn1.[Na+] (centres unmarked) [wondonin, Wondonin] | – | – | – | does not inhibit | –
CCc1ccc2nc(C(c3ccc(OC)c(OC)c3)n3cnc(CCNC4CCCC4)c3)sc2c1 (centres unmarked) [Compound I-13, N-(2-(1-((3,4-dimethoxyphenyl)(6-ethylbenzo[d]thiazol-2-yl)methyl)-1H-imidazol-4-yl)ethyl)cyclopentanamine] | 30.6 | 1.56 | 19.63 | – | –
CCc1ccc2nc(C(c3ccc(OC)c(OC)c3)n3cc(CCN(C)C)nn3)sc2c1 (centres unmarked) [Compound I-2, 2-(1-((3,4-dimethoxyphenyl)(6-ethylbenzo[d]thiazol-2-yl)methyl)-1H-1,2,3-triazol-4-yl)-N,N-dimethylethan-1-amine] | 93.5 | 8.27 | 11.3 | – | –
CCc1ccc2cc(C(c3ccc(O)c(O)c3)n3cc(CCN(C)C)nn3)oc2c1 (centres unmarked) [Compound I-8, 4-((4-(2-(dimethylamino)ethyl)-1H-1,2,3-triazol-1-yl)(6-ethylbenzofuran-2-yl)methyl)benzene-1,2-diol] | 22 | 6.1 | 3.61 | – | –
CCc1ccc2nc(C(c3ccc(OC)c(OC)c3)n3cc(CN4CCCCC4)nn3)sc2c1 (centres unmarked) [Compound I-15, 2-((3,4-dimethoxyphenyl)(4-(piperidin-1-ylmethyl)-1H-1,2,3-triazol-1-yl)methyl)-6-ethylbenzo[d]thiazole] | > 100 | 2.46 | >40.65 | – | –
CCCN(CCC)CCc1cn(C(c2ccc(OC)c(OC)c2)c2nc3ccc(CC)cc3s2)cn1 (centres unmarked) [Compound I-11, N-(2-(1-((3,4-dimethoxyphenyl)(6-ethylbenzo[d]thiazol-2-yl)methyl)-1H-imidazol-4-yl)ethyl)-N-propylpropan-1-amine] | 38.6 | 1.82 | 21.18 | – | –
CCc1ccc2nc(C(c3ccc(OC)c(OC)c3)n3cc(CCN4CCOCC4)nn3)sc2c1 (centres unmarked) [Compound I-6, 4-(2-(1-((3,4-dimethoxyphenyl)(6-ethylbenzo[d]thiazol-2-yl)methyl)-1H-1,2,3-triazol-4-yl)ethyl)morpholine] | > 100 | 3.93 | – | – | –
CCc1ccc2nc(C(c3ccc(OC)c(OC)c3)n3cnc(CCN4CCCCC4)c3)sc2c1 (centres unmarked) [Compound I-12, 2-((3,4-dimethoxyphenyl)(4-(2-(piperidin-1-yl)ethyl)-1H-imidazol-1-yl)methyl)-6-ethylbenzo[d]thiazole] | 75.6 | 3.4 | 22.23 | – | –
CCc1ccc2nc(C(c3ccc(O)c(O)c3)n3cc(CCN(C)C)nn3)oc2c1 (centres unmarked) [Compound I-9, 4-((4-(2-(dimethylamino)ethyl)-1H-1,2,3-triazol-1-yl)(6-ethylbenzo[d]oxazol-2-yl)methyl)benzene-1,2-diol] | > 100 | > 20 | – | – | –
CCc1ccc2nc(C(c3ccc(OC)c(OC)c3)n3cc(CCNC4CCCC4)nn3)sc2c1 (centres unmarked) [Compound I-4, N-(2-(1-((3,4-dimethoxyphenyl)(6-ethylbenzo[d]thiazol-2-yl)methyl)-1H-1,2,3-triazol-4-yl)ethyl)cyclopentanamine] | 19.4 | 1.02 | 19.0 | – | –
CCc1ccc2nc(C(c3ccc(OC)c(OC)c3)n3cnc(CCN4CCCC4)c3)sc2c1 (centres unmarked) [Compound I-14, 2-((3,4-dimethoxyphenyl)(4-(2-(pyrrolidin-1-yl)ethyl)-1H-imidazol-1-yl)methyl)-6-ethylbenzo[d]thiazole] | 95.7 | 1.53 | 62.56 | – | –
CCN(CC)CCNC(=O)c1c(C)[nH]c(/C=C2\C(=O)Nc3ccc(F)cc32)c1C [Sunitinib, sunitinib, reference compound] | 9.92 | 0.546 | 18.2 | – | 4.8
CCc1ccc2nc(C(c3ccc(O)c(O)c3)n3cc(CCN(C)C)nn3)sc2c1 (centres unmarked) [Compound I-1, 4-((4-(2-(dimethylamino)ethyl)-1H-1,2,3-triazol-1-yl)(6-ethylbenzo[d]thiazol-2-yl)methyl)benzene-1,2-diol] | 37.3 | 3.04 | 12.3 | – | –
CCc1ccc2nc(C(c3ccc(OC)c(OC)c3)n3cc(CCCN4CCCCC4)nn3)sc2c1 (centres unmarked) [Compound I-16, 2-((3,4-dimethoxyphenyl)(4-(3-(piperidin-1-yl)propyl)-1H-1,2,3-triazol-1-yl)methyl)-6-ethylbenzo[d]thiazole] | 30.5 | 2.28 | 13.38 | – | –
